Activity calls are given as the source filed them. The rule behind the calls is not given here.
Molecular target: Influenza A virus M2 proton channel (A/TW/4845/1999 H1N1)
Assay: M2 proton channel binding, NMR based, influenza A virus H1N1 strain (AID 1549)
Conditions: NMR binding screen, M2 protein

| Compound | Kd |
| --- | --- |
| COc1ccc(-c2cc(=O)c3ccccc3o2)cc1OC | > 4 mM (inactive) |
| CC(NC(=O)C1CCCCC1)C(=O)NC1=NCCS1 (configuration not stated) | > 4 mM (inactive) |
| Cc1nnc(SCC(=O)NC2CCCC2)[nH]c1=O | > 4 mM (inactive) |
| Cc1c(O)c(O)cc2c1CC=C1[C@@]2(C)CC[C@@]2(C)C3C[C@](C)(C(=O)O)CC[C@]3(C)CC[C@]12C (some centres not stated) | > 4 mM (inactive) |
| CC(=O)Oc1cc2c(c(C)c1OC(C)=O)CC=C1[C@@]2(C)CC[C@@]2(C)C3C[C@](C)(C(=O)O)CC[C@]3(C)CC[C@]12C (some centres not stated) | > 4 mM (inactive) |
| CC(C)CCCC(C)[C@H]1CCC2C3CC[C@H]4CC(=O)CC[C@]4(C)C3CC[C@@]21C (some centres not stated) | > 4 mM (inactive) |
| COc1ccc(/C=C2/NC(=S)NC2=O)cc1 | > 4 mM (inactive) |
| COc1c2ccoc2c(OC)c2oc(=O)ccc12 | > 4 mM (inactive) |
| Cn1nc(-c2cccs2)cc1N | > 4 mM (inactive) |
| O=C1NC(=S)NC(=O)C1=Cc1ccccc1O | > 4 mM (inactive) |
| CC(=O)c1ccc2c(c1)OCCO2 | > 4 mM (inactive) |
| CC1CN(C(=O)c2ccncc2)CC(C)O1 (configuration not stated) | > 4 mM (inactive) |
| O=S1(=O)CCC2CC=CCC21 (configuration not stated) | > 4 mM (inactive) |
| CC(C)c1ccc2c(c1)CCC1[C@](C)(CN)CCC[C@]21C (some centres not stated) | > 4 mM (inactive) |
| CCOCC(=O)NCc1n[nH]c(=O)c2ccccc12 | > 4 mM (inactive) |
| NC1=NC(=O)/C(=C\c2cccnc2)S1 | > 4 mM (inactive) |
| Cc1cc(C)n2nc(-c3cccnc3)nc2n1 | > 4 mM (inactive) |
| COC1=CC(=O)C[C@@H](C)[C@]12Oc1c(Cl)c(OC)cc(OC)c1C2=O | > 4 mM (inactive) |
| Cc1cc(C)n(C2CCS(=O)(=O)C2)n1 (configuration not stated) | > 4 mM (inactive) |
| NC(=O)Cn1nnc(-c2ccc(C(F)(F)F)cc2)n1 | > 4 mM (inactive) |
| NC(=O)CSc1ccc2nnc(-c3ccccc3)n2n1 | > 4 mM (inactive) |
| O=C(/C=C/C=C/c1ccc2c(c1)OCO2)N1CCCCC1 | > 4 mM (inactive) |
| CS(C)=C1C(=O)NC(=O)N(Cc2ccc(F)cc2)C1=O | > 4 mM (inactive) |
| CCOC(=O)c1c(C)cc(O)c(C=O)c1O | > 4 mM (inactive) |

| Compound | Kd |
| --- | --- |
| CC(C)=CCc1c(O)cc(C)oc1=O | > 4 mM (inactive) |
| Cc1scc(C(=O)Nc2ccon2)c1-c1ccccc1 | > 4 mM (inactive) |
| C=C1C[C@]23C[C@@]1(O)CC[C@H]2[C@@]12C=C[C@H](O)C(C)(C(=O)O1)[C@H]2[C@@H]3C(=O)O | > 4 mM (inactive) |
| COC(=O)c1nc(-c2ccccc2)oc1N(C)C | > 4 mM (inactive) |
| C=C1C(=O)O[C@@H]2C[C@@]3(C)CCC[C@H](C)C3=C[C@H]12 | > 4 mM (inactive) |
| Cc1cc2nc(SCC(=O)O)nc(C)c2cc1C | > 4 mM (inactive) |
| COc1cc(-c2nnc(NC(C)=O)o2)cc(OC)c1OC | > 4 mM (inactive) |
| Oc1cc(O)cc(/C=C/c2ccccc2)c1 | > 4 mM (inactive) |
| Cc1n[nH]c(C)c1CN | > 4 mM (inactive) |
| COc1ccccc1-c1cn[nH]c(=S)n1 | > 4 mM (inactive) |
| O=C(O)Cc1c[nH]c2ccccc12 | > 4 mM (inactive) |
| NC1=NC(=O)/C(=C/c2cccs2)S1 | > 4 mM (inactive) |
| NC(=O)C(=O)Nc1nc(-c2ccccc2)cs1 | > 4 mM (inactive) |
| Cn1nc(-c2ccccc2)cc1N | > 4 mM (inactive) |
| CC(=O)n1nc(-c2cccnc2)nc1N | > 4 mM (inactive) |
| Cc1nnc2sc(-c3csc4c3CCCC4)nn12 | > 4 mM (inactive) |
| Cc1nnc(SCc2ccon2)n1-c1ccccc1 | > 4 mM (inactive) |
| Cc1cccc(NS(=O)(=O)c2cccs2)n1 | > 4 mM (inactive) |
| O=C1C2C3CCC(O3)C2C(=O)N1c1ccccc1 (configuration not stated) | > 4 mM (inactive) |
| Nc1c(/C=C2\C=Nc3ccccc32)c(=O)nc2scnn12 | > 4 mM (inactive) |
| O=C(Nc1ccon1)c1ccccc1Cl | > 4 mM (inactive) |
| CNC(=O)c1cc2cccc(OC)c2oc1=O | > 4 mM (inactive) |
| COc1cc(OC)c2c(c1)O[C@H](c1ccc(OC)c(OC)c1)[C@@H](O)C2 | > 4 mM (inactive) |
| O=C(c1ccncc1)c1ccc(Br)cc1 | > 4 mM (inactive) |

| Compound | Kd |
| --- | --- |
| O=C(Nc1c[nH]c(=O)[nH]c1=O)c1cccs1 | > 4 mM (inactive) |
| CC(=O)c1cc2c(s1)SCC(=O)N2 | > 4 mM (inactive) |
| CC(=O)Nc1nnc(-c2ccccn2)o1 | > 4 mM (inactive) |
| CC(=O)O[C@H]1C[C@@H](OC(C)=O)C(C)(C)C2CC(=O)[C@]3(C)C(CC[C@@]4(C)[C@H](C(=O)O)OC(=O)C5OC543)[C@]21C (some centres not stated) | > 4 mM (inactive) |
| COc1c(O)cc2c(-c3ccccc3)cc(=O)oc2c1OC | > 4 mM (inactive) |
| Nc1nc2ncc(=O)[nH]c2c(=O)[nH]1 | > 4 mM (inactive) |
| CN1C(CC(=O)c2ccccc2)CCCC1CC(O)c1ccccc1 (configuration not stated) | > 4 mM (inactive) |
| c1ccc(-c2nc3ccccc3nc2-c2ccccn2)nc1 | > 4 mM (inactive) |
| COc1c(CC=C(C)C)c2c(c3oc(=O)c(-c4ccc(O)cc4)c(O)c13)C=CC(C)(C)O2 | > 4 mM (inactive) |
| Cn1nc(C(=O)NCc2cccnc2)c2ccccc2c1=O | > 4 mM (inactive) |
| CCC[C@@H]1CCCCN1 | > 4 mM (inactive) |
| CC(=O)OC[C@H]1O[C@@H](Oc2cc(OC(C)=O)c3c(=O)cc(-c4ccc(OC(C)=O)cc4)oc3c2)[C@H](OC(C)=O)[C@@H](OC(C)=O)[C@@H]1OC(C)=O | > 4 mM (inactive) |
| Cc1cc(C(=O)NC2=NCCS2)cs1 | > 4 mM (inactive) |
| O=C(NN1C(=O)CSC1=S)c1ccccc1 | > 4 mM (inactive) |
| CC1=CC(C)C(C(=O)O)C(C(=O)N2CCN(C)CC2)C1 (configuration not stated) | > 4 mM (inactive) |
| Cc1nn(-c2ccccc2)nc1CO | > 4 mM (inactive) |
| NC(=O)C1CCN(C(=O)c2ccco2)CC1 | > 4 mM (inactive) |
| Cc1nc2ccccc2c2c1C(=O)N(C)C2=O | > 4 mM (inactive) |
| Cc1nnc(SCC(N)=O)c2ccccc12 | > 4 mM (inactive) |
| COc1cc(/C=C2\SC(=S)NC2=O)ccc1O | > 4 mM (inactive) |
| O=C1CNC(=O)/C1=C/c1ccc(O)cc1 | > 4 mM (inactive) |
| Cc1ncoc1C(=O)Nc1ncc([N+](=O)[O-])s1 | > 4 mM (inactive) |
| Cc1nnc(SCc2cccs2)[nH]c1=O | > 4 mM (inactive) |
| O=C(NC1CCS(=O)(=O)C1)c1cccs1 (configuration not stated) | > 4 mM (inactive) |

| Compound | Kd |
| --- | --- |
| C/C1=C\CCC(=O)C2CC(C)(C)C2CC1 (configuration not stated) | > 4 mM (inactive) |
| OCC1CCCCCN1 (configuration not stated) | > 4 mM (inactive) |
| Nc1ccc(CCC(=O)O)cc1 | > 4 mM (inactive) |
| CC(=O)O[C@H]1CC[C@]2(C)C3CC[C@@]4(C)C(CC5O[C@@]6(CCC(C)CO6)[C@@H](C)C54)C3CC[C@@H]2C1 (some centres not stated) | > 4 mM (inactive) |
| O=C1C2C3C=CC(C3)C2C(=O)N1CCO (configuration not stated) | > 4 mM (inactive) |
| CCc1ccccc1OCc1nnc(N)s1 | > 4 mM (inactive) |
| CC1(C)Oc2ccc(N)cc2O1 | > 4 mM (inactive) |
| O=C(CN1C(=O)CCC1=O)c1ccccc1 | > 4 mM (inactive) |
| Cn1ncc(SCc2ccco2)c(Cl)c1=O | > 4 mM (inactive) |
| CN1CCN(c2cc(=O)n(C)c(=O)[nH]2)CC1 | > 4 mM (inactive) |
| CCOC(=O)C1C(=O)C2CCN1CC2 (configuration not stated) | > 4 mM (inactive) |
| O=C(O)c1ccc2occc2c1 | > 4 mM (inactive) |
| Cc1cc(C(=O)Nc2ccc3c(c2)OCO3)cs1 | > 4 mM (inactive) |
| COc1ccccc1-c1c(C)nn2c(C)c(C(C)=O)cnc12 | > 4 mM (inactive) |
| COc1ccccc1/C=C\C(=O)O | > 4 mM (inactive) |
| Cc1csc2nc3ccccc3c(=O)n12 | > 4 mM (inactive) |
| COc1cc2c(cc1OC)C1(O)C(=O)c3ccc(O)c(C(=O)O)c3OC1CO2 (configuration not stated) | > 4 mM (inactive) |
| Cc1nc2ccccc2c(=O)[nH]1 | > 4 mM (inactive) |
| C=C1C(N)CC2CC1C2(C)C (configuration not stated) | > 4 mM (inactive) |
| O=C(Nn1cnnc1)c1cc2c(s1)CCCC2 | > 4 mM (inactive) |
| O=C(O)Cc1n[nH]c(=O)c2ccccc12 | > 4 mM (inactive) |
| Cc1nc2ccccc2c(=O)n1NC(=O)Nc1ccccc1 | > 4 mM (inactive) |
| CCOCC(=O)N1CCc2ccccc21 | > 4 mM (inactive) |
| C=C1C2CC[C@H]3[C@]4(C)C[C@H](OC5OC(CO)C(OS(=O)(=O)O)C(OS(=O)(=O)O)C5OC(=O)CC(C)C)C[C@@H](C(=O)O)[C@H]4CC[C@]3(C2)[C@H]1O (some centres not stated) | > 4 mM (inactive) |

| Compound | Kd |
| --- | --- |
| O=C(O)C1CC(=O)N(CCc2ccc(Cl)cc2)C1 (configuration not stated) | > 4 mM (inactive) |
| NCc1ccc2occc2c1 | > 4 mM (inactive) |
| Cc1ccc(C(=O)N2CCC(C(N)=O)CC2)cc1C | > 4 mM (inactive) |
| CC(=O)CNc1cc(CNC(C)=O)c(C)cc1C | > 4 mM (inactive) |
| O=C(NCC1CCNCC1)c1ccncc1 | > 4 mM (inactive) |
| COC(=O)c1ccccc1N(C)S(C)(=O)=O | > 4 mM (inactive) |
| Nc1cc(F)ccc1-n1ccnc1 | > 4 mM (inactive) |
| Cc1c(C(=O)N2CCOCC2)oc2c1C(=O)CC(C)(C)C2 | > 4 mM (inactive) |
| CC(=O)Nc1ccc(NC(=O)c2ccncc2)cc1 | > 4 mM (inactive) |
| NC(=O)C1CCN(C(=S)c2cccs2)CC1 | > 4 mM (inactive) |
| Cc1n[nH]c(=S)[nH]c1=O | > 4 mM (inactive) |
| Nc1ccc2[nH]ncc2c1 | > 4 mM (inactive) |
| Nc1cc(F)cc(F)c1 | > 4 mM (inactive) |
| Cc1nnc2ccc(N3CCCC3)nn12 | > 4 mM (inactive) |
| N=C1/C(=C\c2ccco2)C(=O)N=C2SC=NN12 | > 4 mM (inactive) |
| O=C(O)C1CSC(c2ccc(Cl)cc2)N1 (configuration not stated) | > 4 mM (inactive) |
| Nc1cccc(S(=O)(=O)N2CCCCC2)c1 | > 4 mM (inactive) |
| O=C(O)[C@H](O)[C@@](O)(Cc1ccc(O)cc1)C(=O)O | > 4 mM (inactive) |
| C=CCN1CC[C@]23c4c5ccc(O)c4OC2C(=O)CC[C@@]3(O)[C@H]1C5 (some centres not stated) | > 4 mM (inactive) |
| O=C(Nc1ccccn1)C(=O)N1CCCC1 | > 4 mM (inactive) |
| Cn1cnc([N+](=O)[O-])c1Sc1ncnc2nc[nH]c12 | > 4 mM (inactive) |

Reference: PubChem BioAssay AID1549 (Sanford-Burnham Center for Chemical Genomics, 2009)
